From PubChem BioAssay AID743098 (Vanderbilt Specialized Chemistry Center, 2013)
The source made the active and inactive calls. No rule for the calls is given here.

Biological target: Muscarinic acetylcholine receptor M1 (Homo sapiens) (UniProt P11229)
Test: ACh-evoked M1 calcium response modulation – cell-based, human M1, selectivity assay for M5 NAM discovery project (AID 743098)
Details: CHO-K1 hM1 calcium flux, Fluo-4, ACh EC20; at 30 µM; hits give low values

Chain of Muscarinic acetylcholine receptor M1 (Homo sapiens) (P11229 whole entry, looked up): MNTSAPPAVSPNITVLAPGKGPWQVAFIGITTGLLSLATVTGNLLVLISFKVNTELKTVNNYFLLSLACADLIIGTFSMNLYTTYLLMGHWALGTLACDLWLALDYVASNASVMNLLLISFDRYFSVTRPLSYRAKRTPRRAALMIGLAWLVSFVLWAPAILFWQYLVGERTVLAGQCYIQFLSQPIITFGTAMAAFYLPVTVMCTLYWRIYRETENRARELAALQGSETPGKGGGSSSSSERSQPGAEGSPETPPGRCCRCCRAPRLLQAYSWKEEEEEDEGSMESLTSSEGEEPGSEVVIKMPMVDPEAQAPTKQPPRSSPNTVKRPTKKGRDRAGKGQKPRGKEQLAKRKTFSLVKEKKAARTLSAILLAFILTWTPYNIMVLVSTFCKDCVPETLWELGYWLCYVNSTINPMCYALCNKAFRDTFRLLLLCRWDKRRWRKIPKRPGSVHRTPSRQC

Row | SMILES | response, % of max ACh
1 | O=C(c1ccc(F)cc1)N1CCN2C(=O)c3ccccc3C12c1ccccc1 (stereo not given) | 83.6% (inactive)
2 | O=C(c1ccc(F)c(F)c1)N1CCN2C(=O)c3ccccc3C12c1ccc(Cl)cc1 (stereo not given) | 80.5% (inactive)
3 | O=C(c1ccc(F)c(F)c1)N1CCN2C(=O)c3ccccc3[C@@]12c1ccc(Cl)cc1 | 66.4% (inactive)

The remaining lines, values ahead:

Row | response, % of max ACh | SMILES
4 | 87.2% (inactive) | O=C(c1ccc(F)c(F)c1)N1CCN2C(=O)c3ccccc3C12c1ccccc1 (stereo not given)
5 | 79.9% (inactive) | O=C(c1cc(F)cc(F)c1)N1CCN2C(=O)c3ccccc3C12c1ccc(Cl)cc1 (stereo not given)
